Broadly, the EC50 is the concentration needed to bring the measured effect to its halfway point. By IC50 is commonly meant the concentration that inhibits the measured activity by half. A word on the inhibition: it is the drop in the measured response relative to a control, in per cent. For orientation: % inhibition means how much of the control response was suppressed.

The subject of data set [1] is RSV A2 replicon in APC-126 cells. Briefly: RSV subgenomic replicon (minireplicon) assay, luciferase. In kind it is cell-based. The note with it: human respiratory syncytial virus, APC-126, 72 h, read-out: Median EC50. On the procedure:
(§1) The RSV subgenomic replicon system was licensed from Apath (Apath, NY, USA)[49],[50]. The BHK-derived cell line (APC-126) containing the stable RSV A2 replicon was cultured in DMEM/Hams F-12 medium supplemented with 10% (v/v) FBS (Gibco), 1% (v/v) penicillin (10,000 units/mL) and streptomycin (10,000 µg/mL) solution (Gibco), 1% (v/v) MEM non-essential amino acids solution (Gibco), 5% (v/v) Tryptose Phosphate Broth solution (29.5 g/l) (Sigma-Aldrich) and 10 µg/ml of blasticidin solution (Invivogen). Cells were maintained at 37 °C in a humidified 5% CO2 atmosphere. 5000 cells were plated in 96-well clear plates (Corning) in 100 µl/well of medium. […] Cell viability (CC50 and CC90) was measured with a CellTiter-Glo cell proliferation assay (Promega, 100 µl/well of reagent). Results were expressed as EC50 and EC90 values as well as CC50 and CC90 values.
For orientation: A replicon is a self-replicating genome or part of one, used to study replication in cells.

Data set [2] has as its system RSV B clinical isolates and laboratory strains. The data set is described as follows: Inhibition of RSV-B clinical isolates and laboratory strains, RT-qPCR, HeLa. Type of data set: cell-based. The settings on record: human respiratory syncytial virus, 6 strains, read-out: Median EC50. On the procedure: Then, 100 µL of a HeLa cell suspension (5 × 10^4 cells/mL) in culture medium was added to each well. […] After 3 days of incubation, the supernatant was removed from wells. Plates were washed twice with ice-cold PBS (100 µL/well), and were then sealed and stored overnight at −80 °C. Next, 50 µL of lysis solution supplemented with DNAse was added to the plates and incubated for 5 min followed by the addition of 5 µL stop solution (Ambion Cell-to-CT bulk lysis reagent buffer). […] Roche) for cDNA synthesis. Reverse transcription was performed at 42 °C for 30 min, followed by denaturation at 95 °C for 5 min. […] The reaction consisted of a denaturation step (95 °C for 600 s), 45 cycles of denaturation (95 °C for 15 s) and annealing/elongation (60 °C for 60 s), and a step of cooling (40 °C for 10 s).

The nature of data set [3]: Cell viability of replicon cell line (CellTiter-Glo). The note with it: hamster, APC-126 cells (BHK-derived, stable RSV A2 replicon); APC-126, CellTiter-Glo. In kind it is cell-based. On the procedure:
as §1

Another data set concerns the target RSV L+P RdRp (Human respiratory syncytial virus A, UniProt P28887). Briefly: Biotinylated primer extension Flashplate assay, recombinant RSV L+P. Type of data set: biochemical, Human RSV (strain A2). On the procedure: RNA polymerase reaction samples consisted of recombinant RSV L-P polymerase (3 nM) in a buffer containing Tris pH 7.5 (20 mM), KCl (10 mM), dithiothreitol (2 mM), Triton (0.01%), DMSO (10% v/v) with compound at appropriate dilution (10 points 1:5-fold serial dilution starting at 1 µM), and MgCl2 (6 mM). Reactions were started at 30 °C by adding an oligonucleotide template sequence derived from the RSV leader promoter (5’-[…]-3’, 0.2 μM) together with a biotinylated primer (5’-bi-ACGC, 4 μM) mixed with GTP (10 µM), ATP (10 µM) and [α-^33P]CTP (0.025 µM, 3000 Ci/mmol) in a final volume of 10 μL. Reactions were stopped after 120 min by the addition of 90 µl EDTA (0.1 M). Samples were transferred to Flashplates and left 1 h at room temperature for incubation before being washed twice with 0.1% Tween 20, sealed (Topseal) and read on a Wallac MicroBeta TriLux Liquid Scintillation Counter.

In data set [4] the target is T1, RSV L+P complex (Human respiratory syncytial virus A, UniProt P28887). The data set is described as follows: Thermal shift assay (Prometheus NT.48). Type of data set: binding, Human RSV (strain A2). The settings on record: read-out: increase in melting temperature (Tm).
Data set [5] concerns rVSV (Indiana strain-derived, luciferase reporter). The data set is described as follows: microbe, parasite or virus in culture. Type of data set: cell-based, vesicular stomatitis virus.
For data set [6], the target named is T1, RSV L+P complex. In kind it is biochemical. The note with it: for MTase activity, RNA+compound+RSV L+P, CPM: three technical replicates.
A short description of the next data set: in vitro. The note with it: human.

Several values for one entry are separate records, joined by “and”; a condition that tells them apart may be missing. Equal entries are not always repeated. Where two headings read alike, the source gives them in different places.

T1 sequence (P03421 whole entry): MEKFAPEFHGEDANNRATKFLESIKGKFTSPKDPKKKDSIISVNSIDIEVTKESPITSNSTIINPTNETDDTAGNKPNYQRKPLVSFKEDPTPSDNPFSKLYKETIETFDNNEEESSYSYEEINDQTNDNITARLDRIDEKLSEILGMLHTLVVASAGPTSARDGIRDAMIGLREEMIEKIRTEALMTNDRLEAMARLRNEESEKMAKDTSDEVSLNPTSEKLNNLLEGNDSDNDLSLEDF
T1 sequence (P28887 whole entry): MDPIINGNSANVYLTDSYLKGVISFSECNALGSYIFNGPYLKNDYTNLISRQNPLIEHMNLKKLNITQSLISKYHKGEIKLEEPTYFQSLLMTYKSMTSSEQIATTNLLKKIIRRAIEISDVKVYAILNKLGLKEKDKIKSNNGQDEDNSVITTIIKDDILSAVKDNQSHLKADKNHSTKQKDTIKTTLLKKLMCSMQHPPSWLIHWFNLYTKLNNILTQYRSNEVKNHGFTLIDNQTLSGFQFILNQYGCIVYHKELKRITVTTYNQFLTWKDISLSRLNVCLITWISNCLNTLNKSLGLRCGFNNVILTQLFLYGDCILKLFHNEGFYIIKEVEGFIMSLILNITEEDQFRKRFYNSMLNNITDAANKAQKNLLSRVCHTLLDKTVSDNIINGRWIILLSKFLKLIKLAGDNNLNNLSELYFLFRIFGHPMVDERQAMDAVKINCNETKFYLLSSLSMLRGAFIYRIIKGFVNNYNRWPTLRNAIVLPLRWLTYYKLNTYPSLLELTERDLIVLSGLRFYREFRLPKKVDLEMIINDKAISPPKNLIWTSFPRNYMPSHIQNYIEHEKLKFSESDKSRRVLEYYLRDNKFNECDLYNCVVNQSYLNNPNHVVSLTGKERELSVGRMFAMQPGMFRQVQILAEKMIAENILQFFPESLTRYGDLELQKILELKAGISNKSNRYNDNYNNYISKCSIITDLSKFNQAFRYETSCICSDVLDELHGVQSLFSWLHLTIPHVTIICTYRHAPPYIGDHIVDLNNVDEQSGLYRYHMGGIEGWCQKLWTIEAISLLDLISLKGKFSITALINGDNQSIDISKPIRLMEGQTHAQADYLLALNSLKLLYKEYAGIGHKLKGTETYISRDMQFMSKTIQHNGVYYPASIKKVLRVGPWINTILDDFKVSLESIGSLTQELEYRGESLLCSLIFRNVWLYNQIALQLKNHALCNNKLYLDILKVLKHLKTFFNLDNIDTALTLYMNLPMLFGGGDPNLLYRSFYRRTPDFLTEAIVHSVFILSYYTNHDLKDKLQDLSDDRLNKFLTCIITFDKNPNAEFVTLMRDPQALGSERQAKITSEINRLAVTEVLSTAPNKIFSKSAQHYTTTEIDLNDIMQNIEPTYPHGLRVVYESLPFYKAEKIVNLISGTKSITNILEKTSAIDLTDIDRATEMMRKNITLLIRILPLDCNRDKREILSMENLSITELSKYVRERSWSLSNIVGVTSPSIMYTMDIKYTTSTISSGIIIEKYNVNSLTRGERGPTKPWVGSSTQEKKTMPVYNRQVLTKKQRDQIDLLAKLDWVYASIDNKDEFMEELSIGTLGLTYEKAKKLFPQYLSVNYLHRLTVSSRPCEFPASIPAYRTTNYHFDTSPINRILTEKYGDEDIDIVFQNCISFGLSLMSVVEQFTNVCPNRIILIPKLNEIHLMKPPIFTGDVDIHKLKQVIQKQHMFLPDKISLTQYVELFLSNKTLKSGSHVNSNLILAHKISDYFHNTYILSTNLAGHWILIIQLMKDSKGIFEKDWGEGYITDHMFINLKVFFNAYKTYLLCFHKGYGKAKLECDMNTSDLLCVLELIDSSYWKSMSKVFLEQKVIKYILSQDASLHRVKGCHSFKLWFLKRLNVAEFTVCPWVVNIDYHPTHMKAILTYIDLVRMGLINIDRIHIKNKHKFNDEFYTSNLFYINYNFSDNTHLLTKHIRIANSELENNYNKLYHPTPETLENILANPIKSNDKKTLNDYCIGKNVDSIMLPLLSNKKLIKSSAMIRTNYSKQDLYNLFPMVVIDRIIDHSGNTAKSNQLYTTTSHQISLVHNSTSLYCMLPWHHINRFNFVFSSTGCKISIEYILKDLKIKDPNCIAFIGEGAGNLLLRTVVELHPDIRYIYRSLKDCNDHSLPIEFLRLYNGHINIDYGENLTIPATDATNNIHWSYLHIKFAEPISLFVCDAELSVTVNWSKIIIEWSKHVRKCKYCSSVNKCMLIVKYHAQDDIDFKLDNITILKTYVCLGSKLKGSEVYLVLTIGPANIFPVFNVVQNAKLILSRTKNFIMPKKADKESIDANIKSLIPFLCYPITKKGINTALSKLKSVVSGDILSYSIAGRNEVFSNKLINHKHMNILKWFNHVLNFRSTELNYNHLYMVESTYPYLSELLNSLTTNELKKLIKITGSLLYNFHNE
Chain of RSV L+P RdRp (P03421 whole entry): as the sequence (P03421 whole entry) above
Chain of RSV L+P RdRp (P28887 whole entry): as the sequence (P28887 whole entry) above

As to `COc1cc(C(=O)NC[C@](O)(c2cc(C(C)(C)O)c(F)c(-c3ccc(F)cc3)n2)C(F)(F)F)cc2cc(C)nnc12` [JNJ-8003], the EC50 was 0.15 nM in data set [1]; 0.1 nM in data set [2]; > 25000 nM in data set [5] (Vesicular stomatitis virus, A549, read-out: Median EC50). The CC50 at 3 days in data set [3] is 11000 nM; in the data set “in vitro”, 27000 nM. For the same compound, the IC50 at RSV L+P RdRp (RSV L+P RdRp primer extension, n 18, read-out: Median IC50) was determined as 0.73 nM; on RSV L+P RdRp (RdRp activity, Flashplate (Fig. 1c), read-out: IC50) it was 0.67 nM. On RSV L+P RdRp ([JNJ-8003] 0.00032 uM, replicates 1-4), the inhibition at 0.00032 µM was found to be 28.6%. In addition, the “% inhibition” value is 26.2934% and 27.7635% and 40.6870% at RSV L+P RdRp ([JNJ-8003] 0.00032 uM, replicates 1-4, 0.00032 µM); 60.6805% and 64.1654% and 73.5323% at RSV L+P RdRp ([JNJ-8003] 0.0016 uM, replicates 1-4, 0.0016 µM); 89.6905% and 92.3440% and 94.9354% at RSV L+P RdRp ([JNJ-8003] 0.008 uM, replicates 1-4, 0.008 µM); 96.5839% and 97.2066% and 98.2976% at RSV L+P RdRp ([JNJ-8003] 0.04 uM, replicates 1-4, 0.04 µM); 96.5743% and 98.0014% and 97.9026% at RSV L+P RdRp ([JNJ-8003] 0.2 uM, replicates 1-4, 0.2 µM). Besides, the inhibition at 0.0016 µM on RSV L+P RdRp ([JNJ-8003] 0.0016 uM, replicates 1-4) was determined as 55.8%. Moreover, the inhibition at 0.008 µM at RSV L+P RdRp ([JNJ-8003] 0.008 uM, replicates 1-4) is 81.4%. Besides, the inhibition at 0.04 µM on RSV L+P RdRp ([JNJ-8003] 0.04 uM, replicates 1-4) stood at 93%. Besides, the inhibition at 0.2 µM at RSV L+P RdRp ([JNJ-8003] 0.2 uM, replicates 1-4) turned out to be 95.2%. Moreover, the ΔTm at 25 µM on RSV L+P complex [4] worked out at 6 °C. Further, the “inhibition (in words)” value in data set [5] is on record as “negligible inhibition”. Further, the “MTase activity, RNA+compound+RSV L+P, CPM” value at RSV L+P complex [6] (50 uM) was 23422 CPM and 23466 CPM and 23927 CPM; at RSV L+P complex [6] (200 uM) it was 14871 CPM and 15721 CPM and 15503 CPM. Further, the “impact on MTase activity (in words)” value at RSV L+P complex [6] (full-length RSV L+P) is given as “no impact”.

The values above are taken from article PMC10590419, “Structural and mechanistic insights into the inhibition of respiratory syncytial virus polymerase by a non-nucleoside inhibitor” (Communications Biology, 2023).
